This note sets out measurements from ChEMBL document CHEMBL4837201, “Increased antibacterial properties of indoline-derived phenolic Mannich bases” (Eur J Med Chem, 2021).

One may read the MBC as the smallest concentration meeting the test's criterion for killing. In general, MIC refers to the smallest concentration in the dilution series that meets the test's criterion for growth inhibition. As usually defined, the IC50 is the concentration that inhibits the measured activity by half. What is called mortality is the percentage killed.

For data set [1], the system named is Staphylococcus aureus. Put plainly: Antibacterial activity against methicillin-sensitive Staphylococcus aureus ATCC 25923 assessed as inhibition of bacterial growth incubated for 16 to 24 hrs by broth microdilution method. In kind it is functional. Particulars: time 16-24 hrs.
The test system of data set [2] is Staphylococcus aureus. Put plainly: Antibacterial activity against Staphylococcus aureus ATCC 6538 assessed as inhibition of bacterial growth incubated for 16 to 24 hrs by broth microdilution method. In kind it is functional. The conditions noted are these: time 16-24 hrs.
Data set [3] deals with Staphylococcus aureus. As to the kind of experiment: Antibacterial activity against methicillin-resistant Staphylococcus aureus CIP106760 assessed as inhibition of bacterial growth incubated for 16 to 24 hrs by broth microdilution method. In kind it is functional. Particulars: time 16-24 hrs. For orientation: Broth dilution looks for growth in wells or tubes with falling amounts of substance.

Data set [4] deals with Enterococcus faecalis. Put plainly: Antibacterial activity against Enterococcus faecalis ATCC 29212 assessed as inhibition of bacterial growth incubated for 16 to 24 hrs by broth microdilution method. In kind it is functional. The conditions noted are these: time 16-24 hrs.
Data set [5] concerns Enterococcus faecalis. Put plainly: Antibacterial activity against vancomycin-resistant Enterococcus faecalis ATCC 51299 assessed as inhibition of bacterial growth incubated for 16 to 24 hrs by broth microdilution method. The class given is functional. Particulars: time 16-24 hrs.
Data set [6] concerns Staphylococcus epidermidis. Put plainly: Antibacterial activity against Staphylococcus epidermidis ATCC 12228 assessed as inhibition of bacterial growth incubated for 16 to 24 hrs by broth microdilution method. The class given is functional. The conditions noted are these: time 16-24 hrs.
In another data set the test system is Bacillus subtilis. As to the kind of experiment: Antibacterial activity against Bacillus subtilis ATCC 6633 assessed as inhibition of bacterial growth incubated for 16 to 24 hrs by broth microdilution method. The conditions noted are these: time 16-24 hrs. In kind it is functional.
A short description of data set [7]: Toxicity in Saccharomyces cerevisiae ATCC 2601 assessed as reduction in cell viability measured after 24 hrs by microdilution method. Particulars: Saccharomyces cerevisiae, Saccharomyces cerevisiae ATCC 2601 cells.
The nature of data set [8]: (§1) Cytotoxicity against human HaCaT cells assessed as cell viability at 50 uM after 24 hrs by MTT assay. The class given is cell-based. The conditions noted are these: HaCaT cells, read-out: Activity. A general note: Tetrazolium dyes change colour on reduction, which living cells bring about.
The test system of data set [9] is HaCaT. As to the kind of experiment: Cytotoxicity against human HaCaT cells assessed as reduction in cell viability at 50 uM after 24 hrs by MTT assay. The class given is cell-based.
The nature of data set [10]: Toxicity in Artemia salina assessed as mortality at 10 ug/ml measured after 24 hrs. The conditions noted are these: at 10 µg/mL.
The next data set has as its system MRC5. As to the kind of experiment: Cytotoxicity against human MRC5 cells assessed as reduction in cell viability measured after 24 hrs by MTT assay. The class given is cell-based. The conditions noted are these: MRC5, 24 h.
A short description of data set [11]: Antioxidant activity assessed as DPPH radical scavenging activity at 10 ug/ml by DPPH assay relative to control. In kind it is functional. The conditions noted are these: dose 10.0 µg/ml. Background: The DPPH test is a chemical assay of radical scavenging.
Data set [12] has as its system HaCaT. The data set is described as §1. The class given is cell-based. Particulars: hacat, 24 h, 50 µM.

Molecules are shown by their SMILES. ≈ marks a conversion by molar mass, not a printed value. Where only a bound is given, the exact number is not on record here.

In the case of `Cc1ccccc1C(c1cc([N+](=O)[O-])ccc1O)N1CCc2cc(Cl)ccc21` (stereo not drawn), the MBC with Staphylococcus aureus [1] came to 39.6 µM (≈ 15.6 µg/mL); with Staphylococcus aureus [2], 4.95 µM (≈ 1.95 µg/mL); with Staphylococcus aureus [3] it was 2.47 µM (≈ 0.975 µg/mL); in the data set on Enterococcus faecalis [4], 9.89 µM (≈ 3.91 µg/mL); in the data set with Enterococcus faecalis [5] it was 158 µM (≈ 62.4 µg/mL); in data set [6] it was 2.36 µM (≈ 0.932 µg/mL). Moreover, in the data set with Bacillus subtilis, the MBC was determined as 4.71 µM (≈ 1.86 µg/mL). Also, the MIC was 2.47 µM (≈ 0.975 µg/mL) in the data set with Staphylococcus aureus [1]; 1.24 µM (≈ 0.49 µg/mL) with Staphylococcus aureus [2]; 1.24 µM (≈ 0.49 µg/mL) in the data set with Staphylococcus aureus [3]; 1.24 µM (≈ 0.49 µg/mL) in the data set with Enterococcus faecalis [4]; 2.47 µM (≈ 0.975 µg/mL) in the data set on Enterococcus faecalis [5]; below 1.18 µM in data set [6]. Also, the MIC with Bacillus subtilis was below 1.18 µM. Moreover, the IC50 at 24 h in [7] is above 100 µM. In data set [8], the viability at 24 h, 50 µM was found to be 3%. Also, in the data set with HaCaT [9], the Activity entry is on record as “Toxic”.

As for `CN[C@H](CC(C)C)C(=O)N[C@H]1C(=O)N[C@@H](CC(N)=O)C(=O)N[C@H]2C(=O)N[C@H]3C(=O)N[C@H](C(=O)N[C@H](C(=O)O)c4cc(O)cc(O)c4-c4cc3ccc4O)[C@H](O)c3ccc(c(Cl)c3)Oc3cc2cc(c3O[C@@H]2O[C@H](CO)[C@@H](O)[C@H](O)[C@H]2O[C@H]2C[C@](C)(N)[C@H](O)[C@H](C)O2)Oc2ccc(cc2Cl)[C@H]1O` [VANCOMYCIN], the MIC was 5.4 µM (≈ 7.83 µg/mL) with Staphylococcus aureus [1]; 1.35 µM (≈ 1.96 µg/mL) with Staphylococcus aureus [2]; below 1.5 µM in the data set on Staphylococcus aureus [3]; 3.07 µM (≈ 4.45 µg/mL) in the data set with Enterococcus faecalis [4]; below 5.83 µM with Enterococcus faecalis [5]; 1.95 µM (≈ 2.83 µg/mL) in [6]. The MIC in the data set with Bacillus subtilis turned out to be 1.95 µM (≈ 2.83 µg/mL).

Turning to `O=[N+]([O-])c1ccc(O)c(C(c2ccc(Cl)cc2)N2CCc3ccccc32)c1` (stereo not drawn), the minimal bactericidal concentration (MBC) in the data set on Staphylococcus aureus [1] was 9.86 µM (≈ 3.75 µg/mL); with Staphylococcus aureus [2] it was 2.47 µM (≈ 0.941 µg/mL); with Staphylococcus aureus [3], below 1.23 µM; in the data set with Enterococcus faecalis [4], above 9.86 µM; in the data set on Enterococcus faecalis [5], 19.7 µM (≈ 7.5 µg/mL). Further, the MIC stood at 2.47 µM (≈ 0.941 µg/mL) in the data set on Staphylococcus aureus [1]; 1.23 µM (≈ 0.468 µg/mL) in the data set on Staphylococcus aureus [2]; 1.23 µM (≈ 0.468 µg/mL) with Staphylococcus aureus [3]; 1.23 µM (≈ 0.468 µg/mL) with Enterococcus faecalis [4]; 1.23 µM (≈ 0.468 µg/mL) in the data set with Enterococcus faecalis [5]. Moreover, the mortality at 24 h, 10 ug/ml in [10] is below 15%. Further, in data set [7], the IC50 at 24 h is above 100 µM.

Take `O=[N+]([O-])c1ccc2c(c1)CCN2C(c1ccc(C(F)(F)F)cc1)c1cc([N+](=O)[O-])ccc1O` (stereo not drawn): the MBC amounted to 35.6 µM (≈ 16.4 µg/mL) with Staphylococcus aureus [1]; 1.11 µM (≈ 0.51 µg/mL) in the data set on Staphylococcus aureus [3]; 8.89 µM (≈ 4.08 µg/mL) in the data set on Enterococcus faecalis [4]; 142 µM (≈ 65.2 µg/mL) in the data set on Enterococcus faecalis [5]; 2.36 µM (≈ 1.08 µg/mL) in [6]; 18.9 µM (≈ 8.68 µg/mL) with Bacillus subtilis. In addition, the MIC was 2.22 µM (≈ 1.02 µg/mL) with Staphylococcus aureus [1]; 1.11 µM (≈ 0.51 µg/mL) with Staphylococcus aureus [3]; 1.11 µM (≈ 0.51 µg/mL) in the data set on Enterococcus faecalis [4]; 4.45 µM (≈ 2.04 µg/mL) in the data set with Enterococcus faecalis [5]; below 1.18 µM in data set [6]; 9.43 µM (≈ 4.33 µg/mL) with Bacillus subtilis. The IC50 at 24 h in data set [7] was 292 µM. Besides, the IC50 in the data set with MRC5 was determined as 5.8 µM. For the same compound, in the data set with HaCaT [9], the Activity entry was “Toxic”.

Take `Cc1ccc(C(c2cc([N+](=O)[O-])ccc2O)N2CCc3cc(Cl)ccc32)cc1` (stereo not drawn): the MBC in the data set on Staphylococcus aureus [1] was 36.8 µM (≈ 14.5 µg/mL); in the data set with Staphylococcus aureus [2], below 158 µM; with Staphylococcus aureus [3] it was 4.59 µM (≈ 1.81 µg/mL); in the data set on Enterococcus faecalis [4], 9.19 µM (≈ 3.63 µg/mL); in the data set with Enterococcus faecalis [5], 9.19 µM (≈ 3.63 µg/mL); in data set [6], 37.7 µM (≈ 14.9 µg/mL). Moreover, in the data set on Bacillus subtilis, the MBC was 151 µM (≈ 59.6 µg/mL). The MIC amounted to 2.3 µM (≈ 0.908 µg/mL) with Staphylococcus aureus [1]; 19.8 µM (≈ 7.82 µg/mL) in the data set with Staphylococcus aureus [2]; 1.15 µM (≈ 0.454 µg/mL) in the data set with Staphylococcus aureus [3]; 1.15 µM (≈ 0.454 µg/mL) in the data set on Enterococcus faecalis [4]; 2.3 µM (≈ 0.908 µg/mL) in the data set on Enterococcus faecalis [5]; 75.4 µM (≈ 29.8 µg/mL) in data set [6]. Moreover, the MIC in the data set on Bacillus subtilis amounted to 37.7 µM (≈ 14.9 µg/mL). In addition, the Activity in data set [11] was above 80%.

On to `Cc1ccccc1C(c1cc([N+](=O)[O-])ccc1O)N1CCc2cc(Br)ccc21` (stereo not drawn), for which the MBC in the data set with Staphylococcus aureus [1] is 35.6 µM (≈ 15.6 µg/mL); in the data set with Staphylococcus aureus [2], 4.45 µM (≈ 1.95 µg/mL); in the data set with Staphylococcus aureus [3], 1.11 µM (≈ 0.488 µg/mL); in the data set with Enterococcus faecalis [4] it was 8.89 µM (≈ 3.91 µg/mL); in the data set on Enterococcus faecalis [5] it was 142 µM (≈ 62.4 µg/mL); in [6], below 1.18 µM. In addition, the MBC in the data set with Bacillus subtilis is below 1.18 µM. Besides, the MIC in the data set with Staphylococcus aureus [1] was 2.22 µM (≈ 0.975 µg/mL); in the data set on Staphylococcus aureus [2], 1.11 µM (≈ 0.488 µg/mL); with Staphylococcus aureus [3] it was 1.11 µM (≈ 0.488 µg/mL); with Enterococcus faecalis [4] it was 1.11 µM (≈ 0.488 µg/mL); in the data set with Enterococcus faecalis [5], 4.45 µM (≈ 1.95 µg/mL); in data set [6], below 1.18 µM. Also, the MIC in the data set on Bacillus subtilis was below 1.18 µM. In [7], the IC50 at 24 h is above 100 µM. Further, the Activity entry with HaCaT [12] and in the data set with HaCaT [9] was “Toxic” in each case.
